Tested on: pdr5 ypt1^ts cells
Experiment: microbe, parasite or virus in culture
Type: cell-based, yeast
Details: not given
In short: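 Whole-cell yeast growth-rescue screen: pdr5 ypt1^ts cells (efflux pump inactivated), growth-arrested at 37° C., cultured with compounds at 37° C. Restoration of growth read by optical density.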

**Q.** How did the “optical density, 3.13 uM” value turn out when NIMESULIDE [reference compound] was run?
**A.** 0.098

**Q.** And the “optical density, 12.5 uM” value?
**A.** 0.147

**Q.** What about the “optical density, 50 uM” value of the same molecule?
**A.** 0.539

Same assay, conditions: Saccharomyces cerevisiae; Table 2; lowest concentration tested giving growth above the 0 μM background; 37° C.; read-out: ypt1-ts MRC (minimal rescue concentration)

**Q.** Which minimal effective concentration does the source give for `CC(=O)Nc1ccc(OC(=O)c2ccccc2O)cc1` [ACETAMINOSALOL, reference compound] here?
**A.** 12.5 µM

**Q.** For `COc1ccc2c(c1)OCC(Cc1ccc(OC)c(O)c1)C2=O` (stereo not drawn), which minimal effective concentration is on record?
**A.** 12.5 µM

**Q.** `CCOc1cccc(C(=O)c2ccc(O)c(O)c2O)c1` [3,4-DIDESMETHYL-5- DESHYDROXY-3'- ETHOXYSCLEROIN] was tested. Which minimal effective concentration did it give?
**A.** 6.25 µM

**Q.** How did the minimal effective concentration turn out when `CN(C)C(=O)Nc1ccc(Cl)c(Cl)c1` [DIURON] was run?
**A.** 25 µM

**Q.** `CC(=O)OCC[N+](C)(C)C.[Cl-]` [ACETYLCHOLINE, reference compound] was tested. Which minimal effective concentration did it give?
**A.** 6.25 µM

**Q.** `CC/C(=C(/CC)c1ccc(O)cc1)c1ccc(O)cc1` [DIETHYLSTILBESTROL, reference compound] was tested. Which minimal effective concentration did it give?
**A.** 12.5 µM

Same assay, conditions: Table 2; 0.39 μM compound; 37° C.; background (0 μM) 0.058

**Q.** With `CC(=O)Nc1ccc(OC(=O)c2ccccc2O)cc1` [ACETAMINOSALOL, reference compound] as the molecule, how does the “optical density, ypt1-ts, 0.39” value read?
**A.** 0.085

**Q.** How did the “optical density, ypt1-ts, 0.39” value turn out when `COc1ccc2c(c1)OCC(Cc1ccc(OC)c(O)c1)C2=O` (stereo not drawn) was run?
**A.** 0.099

**Q.** With `CCOc1cccc(C(=O)c2ccc(O)c(O)c2O)c1` [3,4-DIDESMETHYL-5- DESHYDROXY-3'- ETHOXYSCLEROIN] as the molecule, how does the “optical density, ypt1-ts, 0.39” value read?
**A.** 0.094

**Q.** How did the “optical density, ypt1-ts, 0.39” value turn out when `CN(C)C(=O)Nc1ccc(Cl)c(Cl)c1` [DIURON] was run?
**A.** 0.082

**Q.** For `CC(=O)OCC[N+](C)(C)C.[Cl-]` [ACETYLCHOLINE, reference compound], which “optical density, ypt1-ts, 0.39” value is on record?
**A.** 0.104

**Q.** How did the “optical density, ypt1-ts, 0.39” value turn out when `CC/C(=C(/CC)c1ccc(O)cc1)c1ccc(O)cc1` [DIETHYLSTILBESTROL, reference compound] was run?
**A.** 0.089

Same assay, conditions: Table 2; 0.78 μM compound; 37° C.; background (0 μM) 0.058

**Q.** With `CC(=O)Nc1ccc(OC(=O)c2ccccc2O)cc1` [ACETAMINOSALOL, reference compound] as the molecule, how does the “optical density, ypt1-ts, 0.78” value read?
**A.** 0.078

**Q.** For `COc1ccc2c(c1)OCC(Cc1ccc(OC)c(O)c1)C2=O` (stereo not drawn), which “optical density, ypt1-ts, 0.78” value is on record?
**A.** 0.068

**Q.** For `CCOc1cccc(C(=O)c2ccc(O)c(O)c2O)c1` [3,4-DIDESMETHYL-5- DESHYDROXY-3'- ETHOXYSCLEROIN], which “optical density, ypt1-ts, 0.78” value is on record?
**A.** 0.075

**Q.** Which “optical density, ypt1-ts, 0.78” value does the source give for `CN(C)C(=O)Nc1ccc(Cl)c(Cl)c1` [DIURON] here?
**A.** 0.073

**Q.** `CC(=O)OCC[N+](C)(C)C.[Cl-]` [ACETYLCHOLINE, reference compound] was tested. Which “optical density, ypt1-ts, 0.78” value did it give?
**A.** 0.087

**Q.** With `CC/C(=C(/CC)c1ccc(O)cc1)c1ccc(O)cc1` [DIETHYLSTILBESTROL, reference compound] as the molecule, how does the “optical density, ypt1-ts, 0.78” value read?
**A.** 0.076

Same assay, conditions: Table 2; 1.56 μM compound; 37° C.; background (0 μM) 0.058

**Q.** Which “optical density, ypt1-ts, 1.56” value does the source give for `CC(=O)Nc1ccc(OC(=O)c2ccccc2O)cc1` [ACETAMINOSALOL, reference compound] here?
**A.** 0.083

**Q.** `COc1ccc2c(c1)OCC(Cc1ccc(OC)c(O)c1)C2=O` (stereo not drawn) was tested. Which “optical density, ypt1-ts, 1.56” value did it give?
**A.** 0.085

**Q.** Which “optical density, ypt1-ts, 1.56” value does the source give for `CCOc1cccc(C(=O)c2ccc(O)c(O)c2O)c1` [3,4-DIDESMETHYL-5- DESHYDROXY-3'- ETHOXYSCLEROIN] here?
**A.** 0.091

**Q.** Which “optical density, ypt1-ts, 1.56” value does the source give for `CN(C)C(=O)Nc1ccc(Cl)c(Cl)c1` [DIURON] here?
**A.** 0.087

**Q.** For `CC(=O)OCC[N+](C)(C)C.[Cl-]` [ACETYLCHOLINE, reference compound], which “optical density, ypt1-ts, 1.56” value is on record?
**A.** 0.085

**Q.** Which “optical density, ypt1-ts, 1.56” value does the source give for `CC/C(=C(/CC)c1ccc(O)cc1)c1ccc(O)cc1` [DIETHYLSTILBESTROL, reference compound] here?
**A.** 0.091

Same assay, conditions: Table 2; 3.13 μM compound; 37° C.; background (0 μM) 0.058

**Q.** How did the “optical density, ypt1-ts, 3.13” value turn out when `CC(=O)Nc1ccc(OC(=O)c2ccccc2O)cc1` [ACETAMINOSALOL, reference compound] was run?
**A.** 0.085

**Q.** How did the “optical density, ypt1-ts, 3.13” value turn out when `COc1ccc2c(c1)OCC(Cc1ccc(OC)c(O)c1)C2=O` (stereo not drawn) was run?
**A.** 0.101

**Q.** How did the “optical density, ypt1-ts, 3.13” value turn out when `CCOc1cccc(C(=O)c2ccc(O)c(O)c2O)c1` [3,4-DIDESMETHYL-5- DESHYDROXY-3'- ETHOXYSCLEROIN] was run?
**A.** 0.108

**Q.** With `CN(C)C(=O)Nc1ccc(Cl)c(Cl)c1` [DIURON] as the molecule, how does the “optical density, ypt1-ts, 3.13” value read?
**A.** 0.081

**Q.** Which “optical density, ypt1-ts, 3.13” value does the source give for `CC(=O)OCC[N+](C)(C)C.[Cl-]` [ACETYLCHOLINE, reference compound] here?
**A.** 0.113

**Q.** For `CC/C(=C(/CC)c1ccc(O)cc1)c1ccc(O)cc1` [DIETHYLSTILBESTROL, reference compound], which “optical density, ypt1-ts, 3.13” value is on record?
**A.** 0.108

Same assay, conditions: Table 2; 6.25 μM compound; 37° C.; background (0 μM) 0.058

**Q.** `CC(=O)Nc1ccc(OC(=O)c2ccccc2O)cc1` [ACETAMINOSALOL, reference compound] was tested. Which “optical density, ypt1-ts, 6.25” value did it give?
**A.** 0.103

**Q.** `COc1ccc2c(c1)OCC(Cc1ccc(OC)c(O)c1)C2=O` (stereo not drawn) was tested. Which “optical density, ypt1-ts, 6.25” value did it give?
**A.** 0.125

**Q.** Which “optical density, ypt1-ts, 6.25” value does the source give for `CCOc1cccc(C(=O)c2ccc(O)c(O)c2O)c1` [3,4-DIDESMETHYL-5- DESHYDROXY-3'- ETHOXYSCLEROIN] here?
**A.** 0.143

**Q.** With `CN(C)C(=O)Nc1ccc(Cl)c(Cl)c1` [DIURON] as the molecule, how does the “optical density, ypt1-ts, 6.25” value read?
**A.** 0.095

**Q.** Which “optical density, ypt1-ts, 6.25” value does the source give for `CC(=O)OCC[N+](C)(C)C.[Cl-]` [ACETYLCHOLINE, reference compound] here?
**A.** 0.164

**Q.** `CC/C(=C(/CC)c1ccc(O)cc1)c1ccc(O)cc1` [DIETHYLSTILBESTROL, reference compound] was tested. Which “optical density, ypt1-ts, 6.25” value did it give?
**A.** 0.103

Same assay, conditions: Table 2; 12.5 μM compound; 37° C.; background (0 μM) 0.058

**Q.** How did the “optical density, ypt1-ts, 12.5” value turn out when `CC(=O)Nc1ccc(OC(=O)c2ccccc2O)cc1` [ACETAMINOSALOL, reference compound] was run?
**A.** 0.127

**Q.** With `COc1ccc2c(c1)OCC(Cc1ccc(OC)c(O)c1)C2=O` (stereo not drawn) as the molecule, how does the “optical density, ypt1-ts, 12.5” value read?
**A.** 0.319

**Q.** `CCOc1cccc(C(=O)c2ccc(O)c(O)c2O)c1` [3,4-DIDESMETHYL-5- DESHYDROXY-3'- ETHOXYSCLEROIN] was tested. Which “optical density, ypt1-ts, 12.5” value did it give?
**A.** 0.185

**Q.** With `CN(C)C(=O)Nc1ccc(Cl)c(Cl)c1` [DIURON] as the molecule, how does the “optical density, ypt1-ts, 12.5” value read?
**A.** 0.101

**Q.** How did the “optical density, ypt1-ts, 12.5” value turn out when `CC(=O)OCC[N+](C)(C)C.[Cl-]` [ACETYLCHOLINE, reference compound] was run?
**A.** 0.27

**Q.** How did the “optical density, ypt1-ts, 12.5” value turn out when `CC/C(=C(/CC)c1ccc(O)cc1)c1ccc(O)cc1` [DIETHYLSTILBESTROL, reference compound] was run?
**A.** 0.163

Same assay, conditions: Table 2; 25 μM compound; 37° C.; background (0 μM) 0.058

**Q.** For `CC(=O)Nc1ccc(OC(=O)c2ccccc2O)cc1` [ACETAMINOSALOL, reference compound], which “optical density, ypt1-ts, 25” value is on record?
**A.** 0.198

**Q.** For `COc1ccc2c(c1)OCC(Cc1ccc(OC)c(O)c1)C2=O` (stereo not drawn), which “optical density, ypt1-ts, 25” value is on record?
**A.** 0.62

**Q.** How did the “optical density, ypt1-ts, 25” value turn out when `CCOc1cccc(C(=O)c2ccc(O)c(O)c2O)c1` [3,4-DIDESMETHYL-5- DESHYDROXY-3'- ETHOXYSCLEROIN] was run?
**A.** 0.396

**Q.** How did the “optical density, ypt1-ts, 25” value turn out when `CN(C)C(=O)Nc1ccc(Cl)c(Cl)c1` [DIURON] was run?
**A.** 0.132

**Q.** With `CC(=O)OCC[N+](C)(C)C.[Cl-]` [ACETYLCHOLINE, reference compound] as the molecule, how does the “optical density, ypt1-ts, 25” value read?
**A.** 0.352

**Q.** With `CC/C(=C(/CC)c1ccc(O)cc1)c1ccc(O)cc1` [DIETHYLSTILBESTROL, reference compound] as the molecule, how does the “optical density, ypt1-ts, 25” value read?
**A.** 0.162

— US20100305068A1, “COMPOUNDS AND METHODS FOR MODULATING PROTEIN TRAFFICKING” (priority 2006, published 2010)
